In patent publication US8871755B2, “Alkene azetidine derivatives as sphingosine 1-phosphate (S1P) receptor modulators” (Allergan, Inc., priority 2013, dated 2014):

Target: T1, human S1P1 receptor (Homo sapiens, UniProt P21453)
T1 construct: expressed in transfected cells; membranes were used
Test: GTP γ35S binding assay for S1P1 activity
Format: biochemical
Settings: activity potency from GTP γ35S binding; membranes of cells stably expressing the S1P1 receptor; 30 min at 25° C.
Description: Compounds were synthesized and tested for S1P1 activity using the GTP γ^35S binding assay. These compounds may be assessed for their ability to activate or block activation of the human S1P1 receptor in cells stably expressing the S1P1 receptor. […] binding was measured in the medium containing (mM) HEPES 25, pH 7.4, MgCl2 10, NaCl 100, dithitothreitol 0.5, digitonin 0.003%, 0.2 nM GTP γ^35S, and 5 μg membrane protein in a volume of 150 μl. Test compounds were included in the concentration range from 0.08 to 5,000 nM unless indicated otherwise. Membranes were incubated with 100 μM 5′-adenylylimmidodiphosphate for 30 min, and subsequently with 10 μM GDP for 10 min on ice. Drug solutions and membrane were mixed, and then reactions were initiated by adding GTP γ^35S and continued for 30 min at 25° C. Reaction mixtures were filtered over Whatman GF/B filters under vacuum, and washed three times with 3 mL of ice-cold buffer (HEPES 25, pH7.4, MgCl2 10 and NaCl 100). Filters were dried and mixed with scintillant, and counted for ^35S activity using a […]. Agonist-induced GTP γ^35S binding was obtained by subtracting that in the absence of agonist. Binding data were analyzed using a non-linear regression method. In case of antagonist assay, the reaction mixture contained 10 nM S1P in the presence of test antagonist at concentrations ranging from 0.08 to 5000 nM.

T1 sequence (P21453 whole entry): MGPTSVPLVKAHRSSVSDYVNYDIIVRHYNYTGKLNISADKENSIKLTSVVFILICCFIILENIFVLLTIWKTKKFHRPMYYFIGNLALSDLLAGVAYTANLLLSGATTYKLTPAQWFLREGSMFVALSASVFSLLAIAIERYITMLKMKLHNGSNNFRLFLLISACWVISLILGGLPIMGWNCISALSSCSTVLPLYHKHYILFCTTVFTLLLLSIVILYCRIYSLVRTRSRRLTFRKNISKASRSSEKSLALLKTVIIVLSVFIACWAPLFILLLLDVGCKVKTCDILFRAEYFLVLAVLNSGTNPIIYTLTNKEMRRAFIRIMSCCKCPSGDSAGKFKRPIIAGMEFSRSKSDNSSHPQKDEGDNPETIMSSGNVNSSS

Row | EC50 [nM] | Compound
1 | 36 | Cc1ccc(C=C(CCCOc2ccc(CN3CC(C(=O)O)C3)cc2)c2ccsc2)cc1C [1-(4-{[5-(3,4-dimethylphenyl)-4-(3-thienyl)pent-4-en-1-yl]oxy}benzyl)azetidine-3-carboxylic acid]
2 | 480 | Cc1ccc(/C=C(\CCCOc2ccc(CN3CC(C(=O)O)C3)cc2)c2cccc(F)c2F)cc1C [Compound 1, 1-(4-{[(4E)-4-(2,3-Difluorophenyl)-5-(3,4-dimethylphenyl)pent-4-en-1-yl]oxy}benzyl)azetidine-3-carboxylic acid]
3 | 652 | Cc1ccc(/C=C(\CCCCSc2ccc(CN3CC(C(=O)O)C3)cc2)c2cc(F)cc(F)c2)cc1C [Compound 4, 1-(4-{[(5E)-5-(3,5-difluorophenyl)-6-(3,4-dimethylphenyl)hex-5-en-1-yl]sulfanyl}benzyl)azetidine-3-carboxylic acid]
4 | 27.9 | Cc1ccc(/C=C(\CCCOc2ccc(CN3CC(C(=O)O)C3)cc2)c2cccc(Cl)c2)cc1C [Compound 5, 1-(4-{[(4E)-4-(3-Chlorophenyl)-5-(3,4-dimethylphenyl)pent-4-en-1-yl]oxy}benzyl)azetidine-3-carboxylic acid]
5 | 4.21 | Cc1ccc(/C=C(\CCCOc2ccc(CN3CC(C(=O)O)C3)cc2)c2cc(F)cc(F)c2)cc1C [Compound 6, 1-(4-{[(4E)-4-(3,5-Difluorophenyl)-5-(3,4-dimethylphenyl)pent-4-en-1-yl]oxy}benzyl)azetidine-3-carboxylic acid]
6 | 158 | Cc1ccc(/C=C(\CCC[S+]([O-])c2ccc(CN3CC(C(=O)O)C3)cc2)c2cc(F)cc(F)c2)cc1C (stereo not drawn) [Compound 7]
